Results: article PMC6606642, “Inhibition of Cathepsin S Reduces Lacrimal Gland Inflammation and Increases Tear Flow in a Mouse Model of Sjögren’s Syndrome” (Scientific Reports, 2019)

Biological target: Cathepsin S (human recombinant CTSS) (Homo sapiens, UniProt P25774)
Assay: fluorescence CTSS activity assay kit with recombinant enzyme
Type: biochemical

Chain of Cathepsin S (human recombinant CTSS) (P25774 115-331): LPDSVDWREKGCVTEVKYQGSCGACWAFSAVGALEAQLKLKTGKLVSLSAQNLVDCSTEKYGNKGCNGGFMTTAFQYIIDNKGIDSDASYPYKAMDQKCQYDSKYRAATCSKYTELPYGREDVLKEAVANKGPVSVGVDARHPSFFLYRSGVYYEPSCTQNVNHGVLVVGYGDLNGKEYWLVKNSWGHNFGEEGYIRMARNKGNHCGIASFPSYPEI

SMILES	IC50
CC(C)C[C@H](NC(=O)[C@H](Cc1ccccc1)NC(=O)OCc1ccccc1)C(=O)C=O [Z-FL-hydrate, Z-FL-COCHO-hydrate]	262 ± 59.3 nM
CC(C)C[C@H](NC(=O)[C@H](Cc1ccccc1)NC(=O)OCc1ccccc1)C(=O)C=O [Z-FL, Z-FL-COCHO]	172 ± 32.7 nM
